In US20160305924A1 (LAGUNA PHARMACEUTICALS , INC., priority 2013, published 2016):
Each block holds one compound with its values, some of them ahead of it.

What was measured:
Assay type in all cases: in vivo, human
[1] = Example 1: plasma concentrations of vanoxerine and metabolites after a 300 mg dose (LC-MS/MS); conditions: for High concentration group average (plasma concentration): 10 patients high concentration group; for Low concentration group average (plasma concentration): 15 patients low concentration group; for Concentrations (plasma): mean of 25 patients
Method: Each patient gave samples before administration of their dose, and then again at nine further time points, 30 minutes after administration, 1, 2, 3, 4, 6, 8, 12, and 24 hours post administration.
Evaluation of samples: A total of 270 human plasma samples were received (in duplicate). The samples were shipped frozen over dry ice. The samples were stored at −70° C. (nominal) until analysis.
Frozen samples were thawed at room temperature. Samples, calibrators, QC samples, sample blanks (blank plasma) and reagent blanks (water) were processed at room temperature. To 200 μL aliquots of each sample, calibrator, and QC sample are added 20 μL of 500 ng/mL of internal standard solution. A sample blank (blank plasma) and reagent blank (water) were also prepared, but without addition of internal standard solution (20 μL of diluent was added instead). To each sample, 200 μL of 1% ammonium hydroxide solution were added and vortex mixed. 3.0 mL of methyl tert-butyl ether were added and then vortex mix for 30 seconds. The sample is then centrifuged for 5 minutes at 4000 rpm and then transferred for about 30 minutes at −70° C. (nominal). The upper (organic) layer was transferred into an evaporation tubes and then evaporated under N2 stream at −50° C. for about 20 min. Samples were then reconstituted in 1000 μL reconstitution solution (80:20:0.1 water: acetonitrile: formic acid). Samples were mixed, allow to stand for about 3 minutes and mixed again. 900 μL of the sample solution was transferred to a 1.5 mL microcentrifuge tube and centrifuged for 5 minutes at 14000 rpm at room temperature. 800 μL of the sample solution was transferred to a glass autosampler vial, and then transferred to the autosampler for analysis. Samples were separated using reversed-phase liquid chromatography with a C18 column.
Chromatographic conditions were as follows: • HPLC instrument: Waters Alliance e2795 HT with temperature controlled autosampler • Column: Waters XBridge C18 3.5μ 100×2.1 mm P.N. 186003022, Lot No. 0143302711 with an appropriate guard column • Column temperature: 45° C. • Autosampler temp. 5° C. • Flow: 0.3 mL/min • Mobile phase A: 10 mM ammonium formate buffer:MeOH:ACN 80:10:10 • Mobile phase B: 10 mM ammonium formate buffer:MeOH:ACN 5:50:45 • Purge solvent: Water:ACN:formic acid 50:50:0.1 • Wash solvent: Water:ACN:formic acid 50:50:0.1 • Injection volume: 20 μL • Run Time: 15 minutes
Detection was based on electro-spray interface in positive mode (ESI+) LC-MS/MS technique, using Micromass Quattro Premier XE MS/MS detector with MassLynx and QuanLynx software version 4.1. […] The MRM transition for all hydroxyl metabolites was m/z 467→203.

[2] = Example 2: daily doses for 11 consecutive days, PK and hemodynamics
[3] = Example 3: daily doses for 14 days after a standardized meal, serum levels and adverse events
Method: A standardized meal was served 15 minutes prior to each dosing.

[4] = Example 4: daily doses for 7 days, hemodynamics and steady state; conditions: 50, 100, 150 mg daily, all patients
[5] = tested on: recent onset symptomatic AF/AFL; test: Example 5: double-blinded placebo-controlled study, conversion to sinus rhythm
Excerpt: (§1) The vanoxerine or identical appearing placebo was randomly assigned and administered in a double-blinded fashion.

[6] = Example 5: adverse events
Excerpt: as §1

[7] = 0.5 h post administration, 1.00 = below LLOQ

High concentration group average (plasma concentration) ([1]; 0.5 h, 1.00 = below LLOQ): 1.00 ng/mL | High concentration group average (plasma concentration) ([1]; 1 h, 1.00 = below LLOQ): 1.00 ng/mL | High concentration group average (plasma concentration) ([1]; 6 h, 1.00 = below LLOQ): 1.00 ng/mL | High concentration group average (plasma concentration) ([1]; 8 h, 1.00 = below LLOQ): 1.00 ng/mL | High concentration group average (plasma concentration) ([1]; 12 h, 1.00 = below LLOQ): 1.00 ng/mL | High concentration group average (plasma concentration) ([1]; 24 h): 0.00 ng/mL | Low concentration group average (plasma concentration) ([1]; 0.5 h, 1.00 = below LLOQ): 1.00 ng/mL | Low concentration group average (plasma concentration) ([1]; 2 h, 1.00 = below LLOQ): 1.00 ng/mL | Low concentration group average (plasma concentration) ([1]; 3 h, 1.00 = below LLOQ): 1.00 ng/mL | Low concentration group average (plasma concentration) ([1]; 4 h, 1.00 = below LLOQ): 1.00 ng/mL | Low concentration group average (plasma concentration) ([1]; 6 h, 1.00 = below LLOQ): 1.00 ng/mL | Low concentration group average (plasma concentration) ([1]; 8 h, 1.00 = below LLOQ): 1.00 ng/mL | Low concentration group average (plasma concentration) ([1]; 12 h, 1.00 = below LLOQ): 1.00 ng/mL | Low concentration group average (plasma concentration) ([1]; 24 h, 1.00 = below LLOQ): 1.00 ng/mL | Concentrations (plasma) [1, 7]: 1.00 ng/mL | Concentrations (plasma) ([1]; 1 h, 1.00 = below LLOQ): 1.02 ng/mL | Concentrations (plasma) ([1]; 2 h, 1.00 = below LLOQ): 1.02 ng/mL | Concentrations (plasma) ([1]; 3 h, 1.00 = below LLOQ): 1.01 ng/mL | Concentrations (plasma) ([1]; 4 h, 1.00 = below LLOQ): 1.01 ng/mL | Concentrations (plasma) ([1]; 6 h, 1.00 = below LLOQ): 1.00 ng/mL | Concentrations (plasma) ([1]; 8 h, 1.00 = below LLOQ): 1.00 ng/mL | Concentrations (plasma) ([1]; 12 h, 1.00 = below LLOQ): 1.00 ng/mL | Concentrations (plasma) ([1]; 24 h, 1.00 = below LLOQ): 1.00 ng/mL
Compound: 16-hydroxyl vanoxerine [M02]

High concentration group average (plasma concentration) ([1]; 2 h, 1.00 = below LLOQ): 28.00 ng/mL | Low concentration group average (plasma concentration) ([1]; 8 h, 1.00 = below LLOQ): 5.30 ng/mL | Concentrations (plasma) [1, 7]: 1.93 ng/mL | Concentrations (plasma) ([1]; 1 h, 1.00 = below LLOQ): 7.51 ng/mL | Concentrations (plasma) ([1]; 2 h, 1.00 = below LLOQ): 19.65 ng/mL | Concentrations (plasma) ([1]; 3 h, 1.00 = below LLOQ): 18.68 ng/mL | Concentrations (plasma) ([1]; 4 h, 1.00 = below LLOQ): 16.42 ng/mL | Concentrations (plasma) ([1]; 6 h, 1.00 = below LLOQ): 11.48 ng/mL | Concentrations (plasma) ([1]; 8 h, 1.00 = below LLOQ): 8.98 ng/mL | Concentrations (plasma) ([1]; 12 h, 1.00 = below LLOQ): 6.30 ng/mL | Concentrations (plasma) ([1]; 24 h, 1.00 = below LLOQ): 3.66 ng/mL
Compound: 17-hydroxyl vanoxerine [M01]

T1/2 range ([2]; 50 mg daily for 11 days): (4.71-110.57) hr | T1/2 range ([2]; 75 mg daily for 11 days): (10.26-116.67) hr | steady state reached ([2]; 50, 75 and 100 mg daily): ≤ 8 days | Tmax ([2]; human, plasma, printed in the Dose column under 50 mg, read-out: TMax range): 0.5 to 2 h | steady state levels achieved [4]: within one week
Compound: Fc1ccc(C(OCCN2CCN(CCCc3ccccc3)CC2)c2ccc(F)cc2)cc1 [Vanoxerine, 1-[2-[bis(4-fluorophenyl)methoxy]ethyl]-4-(3-phenylpropyl)piperazine]
steady-state serum levels versus dose ([3]; 25, 75, 125 mg daily): disproportionately and statistically greater levels at higher doses | adverse events ([3]; 25, 75, 125 mg daily for 14 days, healthy patients): No significant adverse events | Efficacy: Percent conversion ([5]; 200 mg (22), 0-4 hr): 18% | Efficacy: Percent conversion ([5]; 200 mg (22), 0-8 hr): 45% | Efficacy: Percent conversion ([5]; 200 mg (22), 0-24 hr): 59% | Efficacy: Percent conversion ([5]; 300 mg (25), 0-4 hr): 40% | Efficacy: Percent conversion ([5]; 300 mg (25), 0-8 hr): 52% | Efficacy: Percent conversion ([5]; 300 mg (25), 0-24 hr): 64% | Efficacy: Percent conversion ([5]; 400 mg (25), 0-4 hr): 52% | Efficacy: Percent conversion ([5]; 400 mg (25), 0-8 hr): 76% | Efficacy: Percent conversion ([5]; 400 mg (25), 0-24 hr): 84% | time to conversion to normal sinus rhythm, majority of patients ([5]; at a Cmax plasma concentration of more than 40 ng/ml): under 12 hours | Adverse events: serious adverse events ([6]; 200 mg (22)): 1 SAE | Adverse events: subjects reporting ([6]; 200 mg (22)): 4 (18%) subjects (%) | Adverse events: subjects reporting ([6]; 300 mg (25)): 7 (28%) subjects (%) | Adverse events: serious adverse events ([6]; 400 mg (25)): 1 SAE | Adverse events: subjects reporting ([6]; 400 mg (25)): 10 (40%) subjects (%) | tolerability ([6]; 200, 300, 400 mg): well tolerated at all doses
